Laboratory results published in ChEMBL document CHEMBL4602645, “Design, synthesis and evaluation of diosgenin carbamate derivatives as multitarget anti-Alzheimer's disease agents” (2020).
Calls of active or inactive are those of the source. The rule behind the calls is not given here.

Experiments:
[1] = tested on: SH-SY5Y; assay: Neuroprotective activity against H2O2-induced cytotoxicity in human SH-SY5Y cells assessed as cell viability at 10 uM pretreated for 2 hrs followed by H2O2 challenge and measured after 24 hrs by MTT assay relative to control; assay type: functional; details: for viability at 10 µM: read-out: Activity
[2] = tested on: RAW264.7; assay: Antiinflammatory activity in mouse RAW264.7 cells assessed as inhibition of LPS-induced nitric oxide production at 10 uM preincubated for 2 hrs followed by LPS stimulation and measured after 24 hrs by Griess assay relative to control; assay type: functional
[3] = tested on: SH-SY5Y; assay: Neuroprotective activity in human SH-SY5Y cells assessed as inhibition of H2O2-induced shortened nerve filaments at 1 to 50 uM pretreated for 2 hrs followed by H2O2 challenge and measured after 12 hrs by fluorescence microscopy analysis; assay type: functional, cell-based
[4] = tested on: SH-SY5Y; assay: Effect on mitochondrial ROS generation in human SH-SY5Y cells assessed as decrease in H2O2-induced mitochondrial ROS level by measuring fluorescence intensity at 5 to 50 uM incubated for 2 hrs by DCFDA probe based fluorescence microscopy analysis; assay type: functional, cell-based
[5] = tested on: Mus musculus; assay: Improvement in learning and spatial memory in ICR mouse model of D-galactose-induced aging assessed as effect on time spent on quadrant at 6 to 30 mg/kg, ig QD measured after 8 weeks by Morris water maze test; assay type: functional, organism-based
[6] = tested on: Mus musculus; assay: Neuroprotective activity in ICR mouse model of D-galactose-induced aging assessed as increase in number of […] cells at 6 to 30 mg/kg, ig QD measured after 8 weeks by hematoxylin-eosin staining based assay; assay type: functional, organism-based
[7] = tested on: SH-SY5Y; assay: Neuroprotective activity in human SH-SY5Y cells assessed as inhibition of H2O2-induced decreased nerve filaments at 1 to 50 uM pretreated for 2 hrs followed by H2O2 challenge and measured after 12 hrs by fluorescence microscopy analysis; assay type: functional, cell-based
[8] = tested on: Mus musculus; assay: Neuroprotective activity in ICR mouse model of D-galactose-induced aging assessed as reduction in degeneration of neuron in hippocampal region at 6 to 30 mg/kg, ig QD measured after 8 weeks by hematoxylin-eosin staining based assay; assay type: functional, organism-based
[9] = tested on: RAW264.7; assay: Antiinflammatory activity in mouse RAW264.7 cells assessed as decrease in LPS-induced IL-6 expression by Western blot analysis; assay type: functional, cell-based
[10] = tested on: Mus musculus; assay: Antioxidant activity in ICR mouse model of D-galactose-induced aging assessed as increase in superoxide dismutase level in serum at 6 to 30 mg/kg, ig QD measured after 8 weeks; assay type: functional, organism-based
[11] = tested on: RAW264.7; assay: Antiinflammatory activity in mouse RAW264.7 cells assessed as decrease in LPS-induced TNFalpha expression by Western blot analysis; assay type: functional, cell-based
[12] = tested on: RAW264.7; assay: Antiinflammatory activity in mouse RAW264.7 cells assessed as decrease in LPS-induced IL-1beta expression by Western blot analysis; assay type: functional, cell-based
[13] = tested on: SH-SY5Y; assay: Effect on mitochondrial membrane potential in human SH-SY5Y cells assessed as […] in H2O2-incuded mitochondrial membrane potential loss by measuring fluorescence shift at 5 to 50 uM pretreated for 2 hrs followed by H2O2 challenge measured after 12 hrs by fluorescence microscopy analysis; assay type: functional, cell-based
[14] = tested on: SH-SY5Y; assay: Neuroprotective activity against H2O2-induced toxicity in human SH-SY5Y cells assessed as decrease in cell viability at 0.1 to 100 uM pretreated for 2 hrs followed by H2O2 challenge and measured after 12 hrs by MTT assay; assay type: functional, cell-based
[15] = tested on: Astrocyte; assay: Neuroprotective activity against amyloid-beta42-induced cell death in astrocytes isolated from cortex of Sprague-Dawley rat assessed as decrease in cell viability at 5 to 100 uM pretreated for 2 hrs followed by amyloid-beta42 stimulation measured after 24 hrs by MTT assay; assay type: functional, cell-based
[16] = tested on: SH-SY5Y; assay: Neuroprotective activity against H2O2-induced cytotoxicity in human SH-SY5Y cells assessed as cell viability at 1 mM pretreated for 2 hrs followed by H2O2 challenge and measured after MTT assay relative to control; assay type: functional; details: read-out: Activity

Row | Structure (SMILES) | viability at 10 µM [1] | inhibition at 10 µM [2] | other results
1 | CCCCNC(=O)O[C@H]1CC[C@@]2(C)C(=CC[C@H]3[C@@H]4C[C@@H]5O[C@]6(CC[C@@H](C)CO6)[C@@H](C)[C@@H]5[C@@]4(C)CC[C@@H]32)C1 | 47.8% | 11% | 
2 | C[C@@H]1CC[C@@]2(OC1)O[C@H]1C[C@H]3[C@@H]4CC=C5C[C@@H](OC(=O)N6CCCCC6)CC[C@]5(C)[C@H]4CC[C@]3(C)[C@H]1[C@@H]2C | 36.7% | 12% | 
3 | C[C@@H]1CC[C@@]2(OC1)O[C@H]1C[C@H]3[C@@H]4CC=C5C[C@@H](OC(=O)N(C)Cc6ccc(Cl)cc6)CC[C@]5(C)[C@H]4CC[C@]3(C)[C@H]1[C@@H]2C | 43.9% | 12.5% | 
4 | C[C@@H]1CC[C@@]2(OC1)O[C@H]1C[C@H]3[C@@H]4CC=C5C[C@@H](OC(=O)NC6CCCCC6)CC[C@]5(C)[C@H]4CC[C@]3(C)[C@H]1[C@@H]2C | 34.4% | 11.6% | 
5 | C[C@@H]1CC[C@@]2(OC1)O[C@H]1C[C@H]3[C@@H]4CC=C5C[C@@H](OC(=O)N(C)Cc6ccccc6)CC[C@]5(C)[C@H]4CC[C@]3(C)[C@H]1[C@@H]2C | 43.5% | 20.8% | 
6 | C[C@@H]1CC[C@@]2(OC1)O[C@H]1C[C@H]3[C@@H]4CC=C5C[C@@H](OC(=O)NCc6cccc(Cl)c6)CC[C@]5(C)[C@H]4CC[C@]3(C)[C@H]1[C@@H]2C | 13.7% |  | 
7 | COc1cc(CN2CCN(C(=O)O[C@H]3CC[C@@]4(C)C(=CC[C@H]5[C@@H]6C[C@@H]7O[C@]8(CC[C@@H](C)CO8)[C@@H](C)[C@@H]7[C@@]6(C)CC[C@@H]54)C3)CC2)ccc1O | 23.1% |  | 
8 | Cc1ccccc1CNC(=O)O[C@H]1CC[C@@]2(C)C(=CC[C@H]3[C@@H]4C[C@@H]5O[C@]6(CC[C@@H](C)CO6)[C@@H](C)[C@@H]5[C@@]4(C)CC[C@@H]32)C1 | 7.9% |  | 
9 | CCNC(=O)O[C@H]1CC[C@@]2(C)C(=CC[C@H]3[C@@H]4C[C@@H]5O[C@]6(CC[C@@H](C)CO6)[C@@H](C)[C@@H]5[C@@]4(C)CC[C@@H]32)C1 | 10.9% |  | 
10 | COc1ccc(CNC(=O)O[C@H]2CC[C@@]3(C)C(=CC[C@H]4[C@@H]5C[C@@H]6O[C@]7(CC[C@@H](C)CO7)[C@@H](C)[C@@H]6[C@@]5(C)CC[C@@H]43)C2)cc1 | 53.5% | 18.6% | 
11 | Cc1ccc(CN(C)C(=O)O[C@H]2CC[C@@]3(C)C(=CC[C@H]4[C@@H]5C[C@@H]6O[C@]7(CC[C@@H](C)CO7)[C@@H](C)[C@@H]6[C@@]5(C)CC[C@@H]43)C2)cc1 |  |  | Activity [1]: inactive
12 | C[C@@H]1CC[C@@]2(OC1)O[C@H]1C[C@H]3[C@@H]4CC=C5C[C@@H](OC(=O)N6CCN(Cc7ccccc7)CC6)CC[C@]5(C)[C@H]4CC[C@]3(C)[C@H]1[C@@H]2C | 11.2% |  | 
13 | CC(C)CN(C)C(=O)O[C@H]1CC[C@@]2(C)C(=CC[C@H]3[C@@H]4C[C@@H]5O[C@]6(CC[C@@H](C)CO6)[C@@H](C)[C@@H]5[C@@]4(C)CC[C@@H]32)C1 | 17.7% |  | 
14 | Cc1cccc(CNC(=O)O[C@H]2CC[C@@]3(C)C(=CC[C@H]4[C@@H]5C[C@@H]6O[C@]7(CC[C@@H](C)CO7)[C@@H](C)[C@@H]6[C@@]5(C)CC[C@@H]43)C2)c1 | 14.2% |  | 
15 | COc1ccc(CN2CCN(C(=O)O[C@H]3CC[C@@]4(C)C(=CC[C@H]5[C@@H]6C[C@@H]7O[C@]8(CC[C@@H](C)CO8)[C@@H](C)[C@@H]7[C@@]6(C)CC[C@@H]54)C3)CC2)cc1 |  |  | Activity [1]: inactive
16 | COc1cccc(CNC(=O)O[C@H]2CC[C@@]3(C)C(=CC[C@H]4[C@@H]5C[C@@H]6O[C@]7(CC[C@@H](C)CO7)[C@@H](C)[C@@H]6[C@@]5(C)CC[C@@H]43)C2)c1 | 38.8% | 9.8% | 
17 | C[C@@H]1CC[C@@]2(OC1)O[C@H]1C[C@H]3[C@@H]4CC=C5C[C@@H](OC(=O)NCc6ccncc6)CC[C@]5(C)[C@H]4CC[C@]3(C)[C@H]1[C@@H]2C | 42.1% | 11.8% | 
18 | C[C@@H]1CC[C@@]2(OC1)O[C@H]1C[C@H]3[C@@H]4CC=C5C[C@@H](OC(=O)NCc6ccc(Cl)cc6)CC[C@]5(C)[C@H]4CC[C@]3(C)[C@H]1[C@@H]2C | 56.9% | 7% | 
19 | C[C@@H]1CC[C@@]2(OC1)O[C@H]1C[C@H]3[C@@H]4CC=C5C[C@@H](OC(=O)NC6CCCC6)CC[C@]5(C)[C@H]4CC[C@]3(C)[C@H]1[C@@H]2C | 3.3% |  | 
20 | COc1ccc(CN(C)C(=O)O[C@H]2CC[C@@]3(C)C(=CC[C@H]4[C@@H]5C[C@@H]6O[C@]7(CC[C@@H](C)CO7)[C@@H](C)[C@@H]6[C@@]5(C)CC[C@@H]43)C2)cc1 | 19.4% |  | 
21 | C[C@@H]1CC[C@@]2(OC1)O[C@H]1C[C@H]3[C@@H]4CC=C5C[C@@H](OC(=O)NCc6ccccc6)CC[C@]5(C)[C@H]4CC[C@]3(C)[C@H]1[C@@H]2C | 75.3% | 22.7% | Activity [3]: Active; Activity [4]: Active; Activity [5]: Active; Activity [6]: Active; Activity [7]: Active; Activity [8]: Active; Activity [9]: Dose-dependent effect; Activity [10]: Active; Activity [11]: Dose-dependent effect; Activity [12]: Dose-dependent effect; Activity [13]: Active; Activity [14]: Active; Activity [15]: Active
22 | CC(=O)N[C@@H](CS)C(=O)O [ACETYLCYSTEINE] |  |  | viability at 1000 µM [16]: 37.1%
23 | C[C@@H]1CC[C@@]2(OC1)O[C@H]1C[C@H]3[C@@H]4CC=C5C[C@@H](OC(=O)NCc6ccc(F)cc6)CC[C@]5(C)[C@H]4CC[C@]3(C)[C@H]1[C@@H]2C | 60.1% | 18.6% | 
24 | CCN(C)C(=O)O[C@H]1CC[C@@]2(C)C(=CC[C@H]3[C@@H]4C[C@@H]5O[C@]6(CC[C@@H](C)CO6)[C@@H](C)[C@@H]5[C@@]4(C)CC[C@@H]32)C1 | 4.3% |  | 
25 | C[C@@H]1CC[C@@]2(OC1)O[C@H]1C[C@H]3[C@@H]4CC=C5C[C@@H](OC(=O)N6CCCC6)CC[C@]5(C)[C@H]4CC[C@]3(C)[C@H]1[C@@H]2C | 63.2% | 16.5% | 
